{"source": "patent US20240261375A1", "about": "“PHARMACEUTICAL COMPOSITION FOR TREATING OR PREVENTING DISORDER ASSOCIATED WITH ADMINISTRATION OF ANTICANCER AGENT” (LTT BIO-PHARMA CO., LTD., priority 2021, published 2024)", "format_in_all_cases": "in vivo, rat", "key": {"[1]": {"test_system": "intraepidermal nerve fiber of OXA-treated rats", "test": "Assessment of density of intraepidermal nerve fiber (PGP9.5 staining)", "conditions": "OXA+PC-SOD 1 mg/kg; FIG. 3", "description": "Rat epidermis tissue was fixed with a 4% paraformaldehyde fixative and washed with PBS 24 hours later, and a frozen block was prepared. A frozen slice having a thickness of 50 μm was prepared from the prepared block by using Cryostat (CM3050S, Leica Biosystems), and a 0.2% Triton-X solution was added as permeabilization treatment to allow the mixture to react for 10 minutes. Nerve fiber was allowed to react with Anti-PGP9.5 antibody (Ultraclone Ltd.) at 4° C. overnight, then it was washed with PBST, and allowed to react with a secondary fluorescence antibody (Goat anti-Rabbit IgG Alexa Fluor 488, Invitrogen). After the reaction was done at room temperature for one hour, the nerve fiber was washed, rinsed, followed by dropwise addition of […] with DAPI H-1200 (Vector Laboratories), and enclosed, and two to three images of each sample captured at 200-fold magnification were saved (Scale bar=100 μm) by using a fluorescence microscope BZ-X800 (Keyence Corporation)."}, "[2]": {"test_system": "OXA-induced allodynia model rats", "test": "Cold stimulation (acetone) test in OXA-induced allodynia model rats", "conditions": "OXA 10 mg/kg i.p. Days 1 and 2; PC-SOD 1 mg/kg caudal vein, prophylactic; FIG. 2", "description": "Five-week-old male SD rats (from 200 to 400 g) were used as laboratory animals, and OXA was administered into the peritoneal cavity of rats at a dose of 10 mg/kg. A total of two doses were given (Days 1 and 2). A solvent for OXA, i.e., a 5% glucose solution, was similarly administered to a control group.\nLaboratory animals were divided into three groups (n=8 per group): a control group, an OXA administration group, and a group receiving administration of OXA and PC-SOD 1 mg/kg (OXA+PC-SOD administration group). For the OXA+PC-SOD administration group, PC-SOD was administered into the caudal vein from 15 minutes after administration of OXA as prophylactic administration. A total of two doses were given (Days 1 and 2). A solvent for PC-SOD was similarly administered to the control group and the OXA administration group.\nRats were placed in a container with a wire net bottom and acclimatized for 30 minutes, and then 0.1 mL of acetone was sprayed onto their hindlimb by using a spray for an organic solvent (No. 3530, Furupla Co., Ltd.) to give a cold stimulus by utilizing a cooling action at the time of vaporization of acetone. […] Specifically, the responses were assessed by scoring with four levels (Scores 0, 1, 2, and 3). Score 0 was to be given if animals were unresponsive as in a resting state. […]"}, "[3]": {"test_system": "oxaliplatin-induced allodynia model rats", "test": "Von Frey test in oxaliplatin-induced allodynia model rats", "conditions": "OXA 4 mg/kg i.p. 8 doses, prophylactic, FIG. 1", "description": "Six to eight-week-old male SD rats (from 200 to 400 g) were used, and oxaliplatin (hereinafter may be abbreviated as OXA) was administered into the peritoneal cavity of rats at a dose of 4 mg/kg. A total of eight doses were given with a regimen of twice weekly for four weeks (Days 1, 2, 7, 8, 13, 14, 19, and 20). A solvent for OXA, i.e., a 5% glucose solution, was similarly administered to a control group. Elplat I.V. Infusion Solution 100 mg (Yakult Honsha Co., Ltd.) was used as OXA.\nLaboratory animals were divided into five groups: a control group, an OXA administration group, and groups each receiving administration of OXA and PC-SOD 0.1, 0.3, or 1 mg/kg (OXA+PC-SOD administration groups) (n=8 per group). In an experiment of prevention, PC-SOD was administered into the caudal vein from 5 to 15 minutes after administration of OXA in the OXA+PC-SOD administration group. […]\nData were expressed with mean±standard error (SEM). Statistical processing of the results was performed by Student's t test for comparison of two groups and ANOVA one way test (post-hoc Tukey's test) for comparison of three or more groups, and a statistically significant difference was determined when the hazard ratio was 5% or lower (*, **, and *** in the figures: p<0.05, p<0.01, and p<0.001, respectively)."}, "[4]": {"test_system": "peripheral blood cells of CIS-treated rats", "test": "Assessment of myelosuppression caused by cisplatin (peripheral blood cell count)", "conditions": "CIS 3 mg/kg i.p. 8 doses, PC-SOD 1 mg/kg caudal vein, FIG. 14", "description": "Six to eight-week-old male SD rats (from 200 to 400 g) were used. […] A total of eight doses were given with a regimen of twice weekly for four weeks (Days 1, 2, 7, 8, 13, 14, 19, and 20). A solvent for CIS, i.e., physiological saline, was similarly administered to a control group. […] Laboratory animals were divided into three groups: a control group, a CIS administration group, and a group receiving administration of CIS and PC-SOD 1 mg/kg (CIS+PC-SOD administration group) (n=6 per group). For an experiment of prevention, PC-SOD was administered into the caudal vein from five to 15 minutes after CIS administration in the CIS+PC-SOD administration group. A total of eight doses were given with a regimen of twice weekly for four weeks, (Days 1, 2, 7, 8, 13, 14, 19, and 20). A solvent for PC-SOD was similarly administered to the control group and the CIS administration group. Peripheral blood was collected from the rat caudal vein three days later, and peripheral blood was analyzed by using an automated blood cell counter (MEK-6458, Nihon Kohden Corporation)."}}, "data": [{"substance": "lecithinized superoxide dismutase [PC-SOD]", "values": [{"measurement": "decrease in density of intraepidermal nerve fiber caused by OXA", "setting": "[1]", "value": "a suppressive effect on the decrease in density of intraepidermal nerve fiber caused by OXA was observed"}, {"measurement": "increase in score for cold stimulus (acetone test)", "setting": "[2]", "value": "significantly suppressed"}, {"measurement": "decrease in pain sensation threshold caused by OXA (von Frey test)", "setting": "[3]; PC-SOD 1 mg/kg caudal vein", "value": "significantly suppressed"}, {"measurement": "decrease in pain sensation threshold caused by OXA (von Frey test)", "setting": "[3]; PC-SOD 0.1, 0.3 and 1 mg/kg caudal vein", "value": "suppressed by PC-SOD in a concentration-dependent manner"}, {"measurement": "decrease in platelets (PLTs) caused by CIS", "setting": "[4]", "value": "decreases in WBCs and PLTs were suppressed"}, {"measurement": "decrease in white blood cells (WBCs) caused by CIS", "setting": "[4]", "value": "decreases in WBCs and PLTs were suppressed"}]}]}
